{"source": "patent US20100086495A1", "about": "“COMPOSITIONS AND METHODS FOR ENHANCING TRANSMUCOSAL DELIVERY” (DERMA-YOUNG LTD., priority 2007, published 2010)", "origin": "cited, not measured here", "details": "vitamin B12 deficient subjects"}
{"substance": "vitamin B12", "values": [{"measurement": "increase in serum concentration levels of the vitamin, sublingual versus conventional oral vitamin B12", "result": "same extent of increase"}]}
